Measurements reported in patent US7244758B2, “N-type calcium channel blockers” (Neuromed Pharmaceuticals Ltd., priority 2003, dated 2007).

Columns and labels:
[1] = test system: P/Q-type channels (α1A+α2δ+β1b); experiment: Selectivity patch clamp, P/Q-type channels transiently expressed in HEK 293 cells; format: cell-based; conditions: N-type vs P/Q-type
Description: (§1) Antagonist activity was measured using whole cell patch recordings on human embryonic kidney cells either stably or transiently expressing rat α1B+α2δ+β1b channels (N-type channels) with 5 mM barium as a charge carrier. P/Q-type channels (α1A+α2δ+β1b cDNA subunits) and L-type channels (α1C+α2δ+β1b cDNA subunits) were also transiently expressed in HEK 293 cells.
(§2) After an incubation period of from 24 to 72 hrs the culture medium was removed and replaced with external recording solution (see below). Whole cell patch clamp experiments were performed using an Axopatch 200B amplifier (Axon Instruments, Burlingame, Calif.) linked to an IBM compatible personal computer equipped with pCLAMP software. Borosilicate glass patch pipettes (Sutter Instrument Co., Novato, Calif.) were polished (Microforge, Narishige, Japan) to a resistance of about 4 MΩ when filled with cesium methanesulfonate internal solution (composition in MM: 109 CsCH3 SO4, 4 MgCl2, 9 EGTA, 9 HEPES, pH 7.2). Cells were bathed in 5 mM Ba^++ (in mM: 5 BaCl2, 1 MgCl2, 10 HEPES, 40 tetraethylammonium chloride, 10 glucose, 87.5 CsCl pH 7.2). Current data shown were elicited by a train of 100 ms test pulses at 0.066 Hz from −100 mV and/or −80 mV to various potentials (min. −20 mV, max. +30 mV). Drugs were perfused directly into the vicinity of the cells using a microperfusion system. […]

[2] = biological target: T1, human α1G T-type channels (Homo sapiens, UniProt O43497); experiment: Block of α1G T-type channels, whole-cell patch clamp in HEK cells; format: cell-based; conditions: non-inactivating protocol, pre-pulse −100 mV (resting block); read-out: IC50 at −100 mV
T1 construct: expressed in transfected cells
T1 sequence (O43497 whole entry): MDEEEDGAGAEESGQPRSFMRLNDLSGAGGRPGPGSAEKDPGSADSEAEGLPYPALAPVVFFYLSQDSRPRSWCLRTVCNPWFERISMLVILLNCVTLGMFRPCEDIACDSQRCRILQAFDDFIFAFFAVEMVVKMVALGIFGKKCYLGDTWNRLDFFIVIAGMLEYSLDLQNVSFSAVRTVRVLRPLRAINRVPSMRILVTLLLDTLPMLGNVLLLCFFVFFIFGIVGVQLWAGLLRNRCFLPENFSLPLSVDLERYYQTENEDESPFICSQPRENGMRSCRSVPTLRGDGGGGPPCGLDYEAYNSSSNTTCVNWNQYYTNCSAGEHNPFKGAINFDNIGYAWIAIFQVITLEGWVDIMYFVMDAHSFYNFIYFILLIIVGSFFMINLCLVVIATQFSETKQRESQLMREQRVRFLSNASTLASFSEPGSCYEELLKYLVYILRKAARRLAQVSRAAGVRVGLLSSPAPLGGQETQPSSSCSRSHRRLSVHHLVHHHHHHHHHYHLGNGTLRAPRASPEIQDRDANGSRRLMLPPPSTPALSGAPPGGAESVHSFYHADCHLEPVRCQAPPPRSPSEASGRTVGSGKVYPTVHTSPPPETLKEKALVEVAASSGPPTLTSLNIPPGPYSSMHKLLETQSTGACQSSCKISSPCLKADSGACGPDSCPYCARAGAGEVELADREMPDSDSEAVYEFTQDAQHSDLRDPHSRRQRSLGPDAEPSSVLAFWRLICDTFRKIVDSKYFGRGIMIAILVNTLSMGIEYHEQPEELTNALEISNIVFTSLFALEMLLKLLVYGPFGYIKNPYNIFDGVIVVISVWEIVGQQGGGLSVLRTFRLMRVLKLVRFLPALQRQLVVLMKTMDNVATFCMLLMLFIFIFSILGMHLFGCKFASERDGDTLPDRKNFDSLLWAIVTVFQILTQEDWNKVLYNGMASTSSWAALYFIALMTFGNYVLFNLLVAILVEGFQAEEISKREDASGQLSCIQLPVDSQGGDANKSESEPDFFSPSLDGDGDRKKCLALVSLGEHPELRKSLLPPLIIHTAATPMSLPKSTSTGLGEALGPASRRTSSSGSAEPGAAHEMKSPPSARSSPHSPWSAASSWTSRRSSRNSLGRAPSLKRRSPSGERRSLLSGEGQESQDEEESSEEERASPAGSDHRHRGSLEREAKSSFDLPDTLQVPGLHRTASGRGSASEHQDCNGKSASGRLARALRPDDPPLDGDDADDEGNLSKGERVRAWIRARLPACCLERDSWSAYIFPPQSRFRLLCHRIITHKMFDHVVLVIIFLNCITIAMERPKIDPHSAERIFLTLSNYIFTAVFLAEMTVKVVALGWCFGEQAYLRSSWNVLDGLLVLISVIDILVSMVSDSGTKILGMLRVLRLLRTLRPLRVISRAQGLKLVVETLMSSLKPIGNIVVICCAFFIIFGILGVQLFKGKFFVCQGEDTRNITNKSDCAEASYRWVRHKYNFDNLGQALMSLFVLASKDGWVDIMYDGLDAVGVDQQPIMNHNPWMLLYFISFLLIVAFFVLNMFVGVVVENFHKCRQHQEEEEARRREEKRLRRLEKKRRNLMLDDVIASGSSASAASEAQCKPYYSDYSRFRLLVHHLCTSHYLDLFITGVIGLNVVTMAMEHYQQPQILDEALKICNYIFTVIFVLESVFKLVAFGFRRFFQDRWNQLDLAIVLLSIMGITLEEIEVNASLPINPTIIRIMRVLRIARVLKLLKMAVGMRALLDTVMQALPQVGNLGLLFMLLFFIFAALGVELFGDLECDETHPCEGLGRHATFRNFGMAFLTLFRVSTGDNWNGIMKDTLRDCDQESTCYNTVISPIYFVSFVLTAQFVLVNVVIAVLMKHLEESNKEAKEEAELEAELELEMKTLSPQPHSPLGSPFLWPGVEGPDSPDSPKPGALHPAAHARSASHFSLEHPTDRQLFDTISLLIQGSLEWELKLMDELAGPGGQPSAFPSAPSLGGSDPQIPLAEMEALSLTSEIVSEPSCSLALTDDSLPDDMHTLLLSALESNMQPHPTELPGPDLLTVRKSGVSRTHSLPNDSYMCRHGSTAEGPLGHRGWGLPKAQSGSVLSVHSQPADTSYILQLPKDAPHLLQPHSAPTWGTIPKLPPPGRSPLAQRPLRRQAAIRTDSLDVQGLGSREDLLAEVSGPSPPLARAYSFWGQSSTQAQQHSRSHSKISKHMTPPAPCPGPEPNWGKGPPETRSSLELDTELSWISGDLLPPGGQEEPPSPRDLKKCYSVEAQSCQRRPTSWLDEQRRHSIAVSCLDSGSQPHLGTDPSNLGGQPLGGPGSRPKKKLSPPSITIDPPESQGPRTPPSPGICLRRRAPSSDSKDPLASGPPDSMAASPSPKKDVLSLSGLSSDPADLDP
Description: Standard patch-clamp techniques were employed to identify blockers of T-type currents. Briefly, previously described HEK cell lines stably expressing human α1G T-type channels were used for all the recordings (passage #: 4-20, 37° C., 5% CO2). To obtain T-type currents, plastic dishes containing semi-confluent cells were positioned on the stage of a ZEISS AXIOVERT S100 microscope after replacing the culture medium with external solution (see below). Whole-cell patches were obtained using pipettes (borosilicate glass with filament, O.D.: 1.5 mm, I.D.: 0.86 mm, 10 cm length), fabricated on a SUTTER P-97 puller with resistance values of ˜5 MΩ (see below for internal solution).
In the non-inactivating protocol, the holding potential is set at −110 mV and with a pre-pulse at −100 mV for 1 second prior to the test pulse at −40 mV for 50 ms. […]
Test compounds were dissolved in external solution, 0.1-0.01% DMSO. After ˜10 min rest, they were applied by gravity close to the cell using a WPI microfil tubing. The “non-inactivated” pre-pulse was used to examine the resting block of a compound. The “inactivated” protocol was employed to study voltage-dependent block. However, the initial data shown below were mainly obtained using the non-inactivated protocol only. IC50 values are shown for various compounds of the invention in Table 6.

rat formalin model = experiment: Formalin-induced pain model (paw flinches); format: in vivo; conditions: 30 mg/kg IP, 10 min before formalin, saline control=100%
Description: The effects of intrathecally delivered compounds of the invention on the rat formalin model were measured. The compounds were reconstituted to stock solutions of approximately 10 mg/ml in propylene glycol. Eight Holtzman male rats of 275-375 g size were randomly selected per test article.
The following study groups were used, with test article, vehicle control (propylene glycol) and saline delivered intraperitoneally (IP):
Prior to initiation of drug delivery baseline behavioral and testing data were taken.
On the morning of testing, a small metal band (0.5 g) was loosely placed around the right hind paw. The rat was placed in a cylindrical Plexiglas chamber for adaptation a minimum of 30 minutes. Test Article or Vehicle Control Article was administered 10 minutes prior to formalin injection (50 μl of 5% formalin) into the dorsal surface of the right hindpaw of the rat. The animal was then placed into the chamber of the automated formalin apparatus where movement of the formalin injected paw was monitored and the number of paw flinches tallied by minute over the next 60 minutes (Malmberg, A. B., et al., Anesthesiology (1993) 79:270-281).
Results are presented as Maximum Possible Effect±SEM, where saline control=100%.

[3] = test system: L-type channels (α1C+α2δ+β1b); experiment: Selectivity patch clamp, L-type channels transiently expressed in HEK 293 cells; format: cell-based; conditions: N-type vs L-type
Description: as §1, §2

[4] = biological target: T2, rat brain N-type calcium channel subunits (α1B+α2δ+β1b) (Rattus norvegicus, UniProt Q02294); experiment: N-type calcium channel block, whole cell patch clamp in HEK 293 cells; format: cell-based; conditions: low frequency stimulation 0.067 Hz (tonic block), holding −80 mV to +10 mV, 5 mM Ba; read-out: IC50 at 0.067 Hz
T2 construct: expressed in transfected cells; host or cells: HEK 293
T2 sequence (Q02294 whole entry): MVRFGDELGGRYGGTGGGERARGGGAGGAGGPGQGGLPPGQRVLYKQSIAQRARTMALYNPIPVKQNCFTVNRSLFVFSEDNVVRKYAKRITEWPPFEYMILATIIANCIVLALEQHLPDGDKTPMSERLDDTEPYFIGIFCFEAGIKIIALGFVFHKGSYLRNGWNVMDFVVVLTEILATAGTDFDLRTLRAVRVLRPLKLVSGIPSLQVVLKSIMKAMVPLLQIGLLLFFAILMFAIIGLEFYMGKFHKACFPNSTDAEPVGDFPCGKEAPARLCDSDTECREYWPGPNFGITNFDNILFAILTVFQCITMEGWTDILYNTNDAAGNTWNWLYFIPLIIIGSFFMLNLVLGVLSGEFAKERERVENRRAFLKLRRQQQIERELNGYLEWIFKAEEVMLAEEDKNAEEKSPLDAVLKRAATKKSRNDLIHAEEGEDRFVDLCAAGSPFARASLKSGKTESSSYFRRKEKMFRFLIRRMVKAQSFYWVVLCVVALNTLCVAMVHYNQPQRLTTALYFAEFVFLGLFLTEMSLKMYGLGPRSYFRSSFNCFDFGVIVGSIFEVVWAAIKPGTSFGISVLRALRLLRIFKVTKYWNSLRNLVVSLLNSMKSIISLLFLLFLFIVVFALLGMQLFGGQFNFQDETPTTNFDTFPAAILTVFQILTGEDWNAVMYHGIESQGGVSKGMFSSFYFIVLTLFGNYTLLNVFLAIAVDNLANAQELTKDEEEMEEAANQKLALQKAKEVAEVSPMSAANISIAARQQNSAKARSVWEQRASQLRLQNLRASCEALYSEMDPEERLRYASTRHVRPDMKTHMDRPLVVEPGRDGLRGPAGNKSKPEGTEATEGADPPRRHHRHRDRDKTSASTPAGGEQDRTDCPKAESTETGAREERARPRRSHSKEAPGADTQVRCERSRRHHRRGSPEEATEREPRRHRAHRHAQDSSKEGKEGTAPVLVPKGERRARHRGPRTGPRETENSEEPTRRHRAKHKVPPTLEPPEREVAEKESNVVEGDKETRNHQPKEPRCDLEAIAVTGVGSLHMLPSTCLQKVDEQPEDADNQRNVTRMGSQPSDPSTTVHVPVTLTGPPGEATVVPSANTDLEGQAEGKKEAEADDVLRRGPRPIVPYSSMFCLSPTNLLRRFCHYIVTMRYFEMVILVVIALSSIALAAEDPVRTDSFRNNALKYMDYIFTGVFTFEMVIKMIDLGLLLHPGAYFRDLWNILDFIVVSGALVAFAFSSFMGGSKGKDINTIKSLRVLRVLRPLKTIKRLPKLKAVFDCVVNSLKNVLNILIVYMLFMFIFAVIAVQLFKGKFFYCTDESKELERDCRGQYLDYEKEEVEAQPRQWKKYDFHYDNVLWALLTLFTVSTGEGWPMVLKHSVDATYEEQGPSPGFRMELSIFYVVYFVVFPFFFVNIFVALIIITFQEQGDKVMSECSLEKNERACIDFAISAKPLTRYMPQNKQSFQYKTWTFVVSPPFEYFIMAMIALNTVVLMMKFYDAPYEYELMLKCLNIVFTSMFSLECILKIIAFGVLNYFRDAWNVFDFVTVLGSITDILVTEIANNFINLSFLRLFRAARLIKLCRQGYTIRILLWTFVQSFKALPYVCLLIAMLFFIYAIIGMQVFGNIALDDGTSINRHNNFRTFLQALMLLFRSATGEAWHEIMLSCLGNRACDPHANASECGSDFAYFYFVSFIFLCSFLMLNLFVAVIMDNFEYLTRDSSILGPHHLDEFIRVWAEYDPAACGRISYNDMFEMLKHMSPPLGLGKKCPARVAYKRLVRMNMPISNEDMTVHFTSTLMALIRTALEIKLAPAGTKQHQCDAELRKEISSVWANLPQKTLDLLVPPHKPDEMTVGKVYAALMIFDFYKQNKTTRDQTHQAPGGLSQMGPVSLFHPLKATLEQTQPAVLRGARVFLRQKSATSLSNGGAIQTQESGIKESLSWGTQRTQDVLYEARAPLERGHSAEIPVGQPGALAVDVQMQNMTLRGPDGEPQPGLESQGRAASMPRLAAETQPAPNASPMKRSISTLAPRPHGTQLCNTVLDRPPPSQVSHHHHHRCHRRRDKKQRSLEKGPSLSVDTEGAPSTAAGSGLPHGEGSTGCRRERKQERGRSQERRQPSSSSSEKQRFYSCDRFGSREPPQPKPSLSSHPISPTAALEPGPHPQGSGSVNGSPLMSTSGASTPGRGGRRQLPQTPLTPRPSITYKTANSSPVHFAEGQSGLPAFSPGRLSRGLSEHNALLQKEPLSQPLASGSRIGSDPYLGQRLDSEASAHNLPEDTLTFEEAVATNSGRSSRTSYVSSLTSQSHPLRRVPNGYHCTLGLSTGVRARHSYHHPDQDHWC
Description: as §1
For transient expression, host cells, such as human embryonic kidney cells, HEK 293 (ATCC# CRL 1573) were grown in standard DMEM medium supplemented with 2 mM glutamine and 10% fetal bovine serum. HEK 293 cells were transfected by a standard calcium-phosphate-DNA coprecipitation method using the rat α1B+β1b+α2δ N-type calcium channel subunits in a vertebrate expression vector (for example, see Current Protocols in Molecular Biology).
After an incubation period of from 24 to 72 hrs the culture medium was removed and replaced with external recording solution (see below). Whole cell patch clamp experiments were performed using an Axopatch 200B amplifier (Axon Instruments, Burlingame, Calif.) linked to an IBM compatible personal computer equipped with pCLAMP software. Borosilicate glass patch pipettes (Sutter Instrument Co., Novato, Calif.) were polished (Microforge, Narishige, Japan) to a resistance of about 4 MΩ when filled with cesium methanesulfonate internal solution (composition in MM: 109 CsCH3 SO4, 4 MgCl2, 9 EGTA, 9 HEPES, pH 7.2). Cells were bathed in 5 mM Ba^++ (in mM: 5 BaCl2, 1 MgCl2, 10 HEPES, 40 tetraethylammonium chloride, 10 glucose, 87.5 CsCl pH 7.2). […] Drugs were perfused directly into the vicinity of the cells using a microperfusion system.
Normalized dose-response curves were fit (Sigmaplot 4.0, SPSS Inc., Chicago, Ill.) by the Hill equation to determine IC50 values. Steady-state inactivation curves were plotted as the normalized test pulse amplitude following 5 s inactivating prepulses at +10 mV increments. Inactivation curves were fit (Sigmaplot 4.0) with the Boltzman equation, Ipeak (normalized)=1/(1+exp((V−Vh)z/25.6)), where V and Vh are the conditioning and half inactivation potentials, respectively, and z is the slope factor.
N-type calcium channel blocking activity was assayed in human embryonic kidney cells, HEK 293, stably transfected with the rat brain N-type calcium channel subunits (α1B+α2δ+β1b cDNA subunits). Alternatively, N-type calcium channels (α1B+α2δ+β1b cDNA subunits), L-type channels (α1C+α2δ+β1b cDNA subunits) and P/Q-type channels (α1A+α2δ+β1b cDNA subunits) were transiently expressed in HEK 293 cells. Briefly, cells were cultured in Dulbecco's modified eagle medium (DMEM) supplemented with 10% fetal bovine serum, 200 U/ml penicillin and 0.2 mg/ml streptomycin at 37° C. with 5% CO2. At 85% confluency cells were split with 0.25% trypsin/1 mM EDTA and plated at 10% confluency on glass coverslips. At 12 hours the medium was replaced and the cells transiently transfected using a standard calcium phosphate protocol and the appropriate calcium channel cDNA's. Fresh DMEM was supplied and the cells transferred to 28° C./5% CO2. Cells were incubated for 1 to 2 days to whole cell recording.
Whole cell patch clamp experiments were performed using an Axopatch 200B amplifier (Axon Instruments, Burlingame, Calif.) linked to a personal computer equipped with pCLAMP software. The external and internal recording solutions contained, respectively, 5 mM BaCl2, […], 10 mM HEPES, 40 mM TEACl, 10 mM glucose, 87.5 mM CsCl (pH 7.2) and 108 mM CsMS, 4 mM MgCl2, 9 mM EGTA, 9 mM HEPES (pH 7.2). Currents were typically elicited from a holding potential of −80 mV to +10 mV using Clampex software (Axon Instruments).

## CC(C)(C)c1cc(C(=O)NCC2CCN(C(=O)CCCCC(c3ccc(F)cc3)c3ccc(F)cc3)C2)cc(C(C)(C)C)c1 (stereo not shown) [Compound P17]
[1]
  selectivity for N-type over P/Q-type channels: approximately 31 fold
[2]
  IC50: 29 nM
Rat formalin model
  Maximum Possible Effect ± SEM, Phase I: 74 ± 8%
  Maximum Possible Effect ± SEM, Phase II: 84 ± 9%
  Maximum Possible Effect ± SEM, Phase IIA: 79 ± 9%
[3]
  selectivity for N-type over L-type channels: greater than 75 fold
[4]
  IC50: 60 nM
